Measured values taken from patent US7902361B2, “Pyrimidin-4-yl-3, 4-thione compounds and their use in therapy” (Cyclacel Limited, priority 2003, dated 2011).
Where two headings read alike, the source gives them in different places.

Columns and labels:
[1] = biological target: T1, GSK3α (Homo sapiens, UniProt P49840); test: GSK3α in vitro kinase assay; format: biochemical; conditions: recombinant human GSK3α, 100 μM ATP
T1 construct: purchased Upstate
Method: Both isoforms of GSK3 (α and β) are involved in the regulation of glycogen synthase activity—key enzyme in the glycogen metabolism. The inhibitory potency of example compounds was determined using in vitro kinase assays with recombinant human GSK3-α and -β; the IC50 values determined are presented in Table 9.
A 10-point titration was set up to determine the IC50 values of selected example compounds against GSK3β. Assays were performed using 96-well microtiter plates with a final volume of 25 μL per well. Each assay contained 1.5 units of GSK3β(New England Biolabs), 200 μM CREB phosphopeptide ([…]pSYR, Alta Biosciences), 20 mM Tris HCl pH7.5, 5 mM DTT, 15 mM MgCl2 supplemented with 100 μM ATP and 0.5 μCi of [γ-^32P] ATP plus or minus inhibitor in 2% DMSO. Assays were carried out for 30 minutes at 30° C. before stopping the reaction by the addition of an equal volume of 75 mM aqueous phosphoric acid. Samples were then spotted onto a p81 filterplate (Whatman) and a vacuum was applied. Wells were washed 3 times with 200 μL of dilute aqueous phosphoric acid before the addition of 50 μL Microscint 40 per well. Incorporation of radioactivity was determined on a Topcount microplate scintillation counter (Packard).
GSK3α (Upstate) was assayed exactly as described above except that 1 ng of enzyme was added per assay point.

[2] = system: glycogen synthase; test: Glycogen synthase activation in mouse adipocytes; format: cell-based; conditions: for Max FI (% to LiCl): maximum fold induction normalised to 40 mM LiCl
Method: 3T3-L1 mouse pre-adipocytes were grown in DMEM medium supplemented with 10% foetal calf serum (FCS) and penicillin/streptomycin until fully confluent. Cell differentiation was initiated by the addition of 0.5 mM IBMX (2-isobutyl-1-methylxanthine), 0.25 μM dexamethasone and 1 μg/mL insulin into the growth media. The differentiation medium was replaced after 4 days and 7 days. After the initiation of differentiation the cells were grown for an additional 3 days in DMEM, 10% FCS and antibiotics.
HEK293 cells, mouse adipocytes or rat myotubes were treated in 10-cm Petri dishes with different concentrations of GSK3 inhibitor example compounds for 90 minutes. At the end of the treatment period the cells were washed and scraped in ice cold PBS buffer supplemented with 20 mM NaF. The cells were pelleted by centrifugation and lysed in 300 μL buffer (50 mM.HEPES pH 7.5, 10 mM EDTA, 100 mM NaF, 5 mM DTT, protease inhibitor cocktail (Sigma)). After incubation for 30 min on ice the samples were cleared by centrifugation. The activity of glycogen synthase was determined in the soluble fraction at two different concentrations of […]—low (0.1 mM) and high (10 mM). The reaction was carried out for 30 min (buffer: 50 mM Tris pH 7.8, 20 mM EDTA, 25 mM NaF, 5 mM DTT). The reaction mixture (total volume of 90 μL) contained 1% glycogen, 0.3 mM UDP-glucose and 0.06 μCi ^14C-UDP-glucose. Reaction was stopped by transfer of 70 μL to a GFC 96-well filter plate, containing 140 μL 100% ethanol and the glycogen was allowed to precipitate for 1 h at 4° C. The wells were washed 2 times with 200 μL 66% ethanol and than allowed to dry. Subsequently, 100 μL of scintillation liquid was added, and plates were sealed and counted in a Packard Topcounter. Glycogen synthase activation was calculated as the ratio between the incorporation of labelled ^14C-UDP-glucose in glycogen at low and high concentration of […] (fractional velocity).
The ability of GSK3 inhibitors to activate glycogen synthase was determined in HEK293 cells, mouse adipocytes and rat myotubed. The compounds tested activated glycogen synthase in all three cellular systems with EC50 values in the sub-micromolar to low micromolar concentration range. Most of them exceeded the stimulation induced by 40 mM LiCl (the highest compound concentration used in the assay was 20 μM).

[3] = biological target: CDK9/cyclin T1 (Homo sapiens, UniProt P50750); test: Kinase assay CDK9/cyclin T1; format: biochemical; conditions: Ki calculated (Cheng-Prusoff) from experimentally determined IC50 and Km,ATP; read-out: Kinase Inhibition Ki CDK9 - cyclin T1
In short: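 Radiometric filter assays used recombinant kinases or complexes (2-4 μg) with appropriate polypeptide substrates in pH 7.4 β-glycerophosphate/MOPS buffer. Reactions were started with 15 mM MgCl2 and 100 μM ATP containing [γ-32P]-ATP and run at 30° C. Phosphate incorporated into substrate was counted by scintillation after washing.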

[4] = biological target: T2, DYRK1A (Homo sapiens, UniProt Q13627); test: DYRK1A in vitro kinase assay; format: biochemical; conditions: recombinant human DYRK1A, 100 μM ATP
T2 construct: purchased Upstate
Description: Dual specificity tyrosine phosphorylation regulated kinase 1A (DYRK1A) has been proposed, amongst other functions, to play a role in the regulation of glycogen metabolism in a way similar to GSK3. Some of the example compounds of the present invention were screened against recombinant human DYRK1A in vitro and the determined IC50 values are shown in Table 9. According to our current knowledge inhibition of DYRK1A will have additional positive effect on stimulation of glycogen synthase.
A 10-point titration was set up to determine the IC50 values of selected example compounds against DYRK1A. Assays were performed using 96-well microtiter plates and a final volume of 25 μL/well. Each assay contained 2.3 milliunits of DYRK1A (Upstate), 50 μM Woodtide peptide ([…], Upstate), 20 mM Tris HCl pH 8.0, 10 mM DTT, 5 mM EGTA, 1 mM NaVO3, 31 mM β-glycerophosphate, 15 mM MgCl2 supplemented with 100 μM ATP and 0.5 μCi of [γ-^32P] ATP plus or minus inhibitor in 2% DMSO. Assays were carried out for 60 minutes at 30° C. before stopping the reaction by the addition of an equal volume of 75 mM aqueous phosphoric acid. Samples were then spotted onto a p81 filterplate (Whatman) and a vacuum applied. Wells were washed 3 times with 200 μL of dilute aqueous phosphoric acid before the addition of 50 μL Microscint 40 per well. Incorporation of radioactivity was determined on a Topcount microplate scintillation counter (Packard).

T1 sequence (P49840 whole entry): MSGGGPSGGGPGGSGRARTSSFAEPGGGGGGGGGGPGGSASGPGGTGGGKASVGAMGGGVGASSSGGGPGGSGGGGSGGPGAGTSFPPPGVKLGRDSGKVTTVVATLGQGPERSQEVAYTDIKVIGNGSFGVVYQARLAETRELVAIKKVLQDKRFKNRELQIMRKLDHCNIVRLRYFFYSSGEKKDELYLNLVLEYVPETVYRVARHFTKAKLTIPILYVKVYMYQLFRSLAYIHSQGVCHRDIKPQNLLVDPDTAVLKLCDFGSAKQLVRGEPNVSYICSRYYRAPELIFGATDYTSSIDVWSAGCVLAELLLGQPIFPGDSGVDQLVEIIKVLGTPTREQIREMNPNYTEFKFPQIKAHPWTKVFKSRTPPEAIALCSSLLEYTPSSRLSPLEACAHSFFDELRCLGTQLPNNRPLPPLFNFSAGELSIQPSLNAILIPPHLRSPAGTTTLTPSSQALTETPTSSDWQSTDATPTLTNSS
Sequence of CDK9/cyclin T1 (P50750 whole entry, species assumed): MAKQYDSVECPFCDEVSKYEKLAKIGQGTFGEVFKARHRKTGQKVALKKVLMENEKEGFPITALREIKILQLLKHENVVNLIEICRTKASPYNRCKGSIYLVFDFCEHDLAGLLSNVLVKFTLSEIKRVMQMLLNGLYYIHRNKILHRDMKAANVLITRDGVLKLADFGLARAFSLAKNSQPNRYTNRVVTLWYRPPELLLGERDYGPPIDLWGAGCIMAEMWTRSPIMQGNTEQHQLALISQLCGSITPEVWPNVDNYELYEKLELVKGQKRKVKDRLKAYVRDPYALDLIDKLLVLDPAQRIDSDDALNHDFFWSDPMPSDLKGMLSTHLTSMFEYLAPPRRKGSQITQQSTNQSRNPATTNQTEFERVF
Sequence of CDK9/cyclin T1 (O60563 whole entry partner, species assumed): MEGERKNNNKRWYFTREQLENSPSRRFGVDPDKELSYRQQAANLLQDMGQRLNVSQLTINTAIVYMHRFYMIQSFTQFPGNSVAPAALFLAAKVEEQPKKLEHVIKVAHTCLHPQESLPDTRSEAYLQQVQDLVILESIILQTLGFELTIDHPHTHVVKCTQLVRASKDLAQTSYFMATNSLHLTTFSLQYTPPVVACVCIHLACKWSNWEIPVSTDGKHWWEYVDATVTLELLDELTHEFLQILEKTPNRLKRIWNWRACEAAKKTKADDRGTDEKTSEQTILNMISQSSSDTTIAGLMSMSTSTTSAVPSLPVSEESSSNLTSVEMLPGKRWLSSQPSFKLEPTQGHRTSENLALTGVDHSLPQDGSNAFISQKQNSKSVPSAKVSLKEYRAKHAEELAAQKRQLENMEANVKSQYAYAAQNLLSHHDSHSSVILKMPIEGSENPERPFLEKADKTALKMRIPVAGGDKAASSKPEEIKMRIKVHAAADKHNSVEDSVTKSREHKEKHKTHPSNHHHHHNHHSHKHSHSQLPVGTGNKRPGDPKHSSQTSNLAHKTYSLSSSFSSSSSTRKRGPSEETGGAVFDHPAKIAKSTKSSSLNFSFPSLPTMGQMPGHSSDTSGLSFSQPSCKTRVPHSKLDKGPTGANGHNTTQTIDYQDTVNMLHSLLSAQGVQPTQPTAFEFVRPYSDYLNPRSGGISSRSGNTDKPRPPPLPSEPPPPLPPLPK

SMILES	IC50 [1] [nM]	EC50 ([2]; Adipocyte) [nM]	Max FI (% to LiCl) [2]	Ki [3] [nM]	IC50 [4] [nM]	EC50 [2] [nM]
CCNS(=O)(=O)c1cccc(Nc2nccc(-c3sc(=O)n(C)c3C)n2)c1 [Compound 62, 3-[4-(3,4-Dimethyl-2-oxo-2,3-dihydro-thiazol-5-yl)-pyrimidin-2-ylamino]-N-ethyl-benzenesulfonamide]	27	432 ± 179	234 % to LiCl	4.8	51	
CC(=O)Nc1cc(Nc2nccc(-c3sc(=O)n(C)c3C)n2)cc(C(F)(F)F)c1 [Compound 64, N-{3-[4-(3,4-Dimethyl-2-oxo-2,3-dihydro-thiazol-5-yl)-pyrimidin-2-ylamino]-5-trifluoromethyl-phenyl}-acetamide]	2.4	148 ± 70	143 % to LiCl	5.7	77	
COCCNS(=O)(=O)c1cccc(Nc2nccc(-c3sc(=O)n(C)c3C)n2)c1 [Compound 67, 3-[4-(3,4-Dimethyl-2-oxo-2,3-dihydro-thiazol-5-yl)-pyrimidin-2-ylamino]-N-(2-methoxy-ethyl)-benzenesulfonamide]	17.8	4830 ± 4600	177 % to LiCl	4.8	19	
Cc1c(-c2ccnc(Nc3cc(Br)cc(C(F)(F)F)c3)n2)sc(=O)n1C [Compound 68, 5-[2-(3-Bromo-5-trifluoromethyl-phenylamino)-pyrimidin-4-yl]-3,4-dimethyl-3H-thiazol-2-one]	136	9550 ± 7400	50 % to LiCl	140	73	
Cc1c(-c2ccnc(Nc3cccc(S(=O)(=O)NCCO)c3)n2)sc(=O)n1C [Compound 75, 3-[4-(3,4-Dimethyl-2-oxo-2,3-dihydro-thiazol-5-yl)-pyrimidin-2-ylamino]-N-(2-hydroxy-ethyl)-benzenesulfonamide]	31	2190 ± 400	181 % to LiCl	9.5	26	
CNc1cc(Nc2nccc(-c3sc(=O)n(C)c3C)n2)cc(C(F)(F)F)c1 [Compound 76, 3,4-Dimethyl-5-[2-(3-methylamino-5-trifluoromethyl-phenylamino)-pyrimidin-4-yl]-3H-thiazol-2-one]	42		196 % to LiCl	21	148	1110 ± 530
